Where two headings read alike, the source gives them in different places.
Key:
Format in all cases: cell-based
wild type BaF3 = assay: Growth inhibition of wild type BaF3 cells (broad-spectrum toxicity); details: Mus musculus, BaF3, 48 h, MTS
Outline: (§1)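 Cells (2×10^4/well) exposed 48 h at 37 °C to 8 compound concentrations, 3-fold down from 10 μM, in 0.1% DMSO. Growth read by MTS/PES at 490 nm after 1–4 h; inhibition normalised to DMSO and cell-free blank, IC50 from triplicates.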

EML4-ALK (L1196M)-BaF3 = molecular target: T1, EML4-ALK (L1196M)-BaF3 (Homo sapiens, UniProt Q9UM73, L1196M); assay: Growth inhibition of EML4-ALK (L1196M) transformed BaF3 cells (MTS); details: 48 hours
T1 construct: expressed in transfected cells; host or cells: Ba/F3 cells; the other entry of the earlier key: EML4 (Q9HC35, Echinoderm microtubule-associated protein-like 4)
Outline: (§2)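 Ba/F3 cells (2×10^4/well) in DMEM or RPMI1640 with 10% FBS exposed to 8 compound concentrations (top 10 μM, 1/3 serial dilution, 0.1% DMSO) for 48 h at 37 °C, 5% CO2. Viability by MTS/PES, 1-4 h, OD 490 nm; triplicates. IC50 fitted from inhibition rate.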

NPM-ALK-BaF3 = molecular target: T2, NPM-ALK-BaF3 (Homo sapiens, UniProt Q9UM73); assay: Growth inhibition of NPM-ALK transformed BaF3 cells (MTS); details: 48 hours
T2 construct: expressed in transfected cells; host or cells: Ba/F3 cells; the other entry of the earlier key: NPM1 (P06748, Nucleophosmin)
Outline: as §1

EML4-ALK-BaF3 = molecular target: T3, EML4-ALK-BaF3 (Homo sapiens, UniProt Q9UM73); assay: Growth inhibition of EML4-ALK transformed BaF3 cells (MTS); details: for IC50: EML4-ALK-BaF3 cells, 48 hours, MTS
T3 construct: expressed in transfected cells; host or cells: Ba/F3 cells; the other entry of the earlier key: EML4 (Q9HC35, Echinoderm microtubule-associated protein-like 4)
Outline: as §2

[1] = Table 12, read-out: L1196M (IC50 nM)
[2] = Table 11, read-out: EML4-ALK (L1196M) (IC50 nM)

Row | IC50 (EML4-ALK (L1196M)-BaF3; [1]) | IC50 (NPM-ALK-BaF3; Table 12) | IC50 (EML4-ALK-BaF3; Table 12) | targeting selectivity (EML4-ALK-BaF3; ratio of IC50 between wild-type BaF3 and ALK transformed BaF3 cells) | IC50 (EML4-ALK (L1196M)-BaF3; [2]) | IC50 (NPM-ALK-BaF3; Table 11) | IC50 (EML4-ALK-BaF3; Table 11) | Compound | IC50 (wild type BaF3; Table 12) | IC50 (wild type BaF3; Table 11)
1 | 9700 nM | > 10000 nM | > 10000 nM | – | – | – | – | CC(C)Sc1ccccc1CNc1nc(Nc2ccc(S(N)(=O)=O)cc2)nc2ccn(C)c12 [IIJ-3] | > 10000 nM | –
2 | 2100 nM | 1980 nM | ~2700 nM | – | – | – | – | COc1cc(N2CCN(C)CC2)ccc1Nc1nc(NCc2ccccc2S(C)(=O)=O)c2c(ccn2C)n1 [IIK-1] | 3280 nM | –
3 | ~2950 nM | ~3420 nM | ~3150 nM | – | – | – | – | COc1cc(N2CCC(N3CCN(C)CC3)CC2)ccc1Nc1nc(NCc2ccccc2S(C)(=O)=O)c2c(ccn2C)n1 [IIK-2] | ~2950 nM | –
4 | > 10000 nM | > 10000 nM | > 10000 nM | – | – | – | – | Cn1ccc2nc(Nc3ccc(N4CCC(O)CC4)cc3)nc(NCc3ccccc3S(C)(=O)=O)c21 [IIK-3] | > 10000 nM | –
5 | ~2560 nM | 1880 nM | 1430 nM | – | – | – | – | CN1CCN(c2ccc(Nc3nc(NCc4ccccc4S(C)(=O)=O)c4c(ccn4C)n3)cc2)CC1 [IIK-5] | ~2870 nM | –
6 | > 10000 nM | > 10000 nM | > 10000 nM | – | – | – | – | COc1cc(C(=O)N2CCC(N3CCN(C)CC3)CC2)ccc1Nc1nc(NCc2ccccc2S(C)(=O)=O)c2c(ccn2C)n1 [IIK-6] | > 10000 nM | –
7 | 1590 nM | 1350 nM | 1300 nM | – | – | – | – | COc1cc(N2CCN(C)CC2)ccc1Nc1nc(NCc2ccccc2S(=O)(=O)C(C)C)c2c(ccn2C)n1 [IIL-1] | ~2610 nM | –
8 | 1420 nM | 1820 nM | 627 nM | good targeting selectivity | – | – | – | COc1cc(N2CCC(N3CCN(C)CC3)CC2)ccc1Nc1nc(NCc2ccccc2S(=O)(=O)C(C)C)c2c(ccn2C)n1 [IIL-2] | 2620 nM | –
9 | > 10000 nM | 7440 nM | > 10000 nM | – | – | – | – | CC(C)S(=O)(=O)c1ccccc1CNc1nc(Nc2ccc(N3CCC(O)CC3)cc2)nc2ccn(C)c12 [IIL-3] | > 10000 nM | –
10 | > 10000 nM | > 10000 nM | > 10000 nM | – | – | – | – | CC(C)S(=O)(=O)c1ccccc1CNc1nc(Nc2ccc(S(N)(=O)=O)cc2)nc2ccn(C)c12 [IIL-4] | > 10000 nM | –
11 | 1530 nM | 848 nM | 1140 nM | – | – | – | – | CC(C)S(=O)(=O)c1ccccc1CNc1nc(Nc2ccc(N3CCN(C)CC3)cc2)nc2ccn(C)c12 [IIL-5] | ~2760 nM | –
12 | 6470 nM | > 10000 nM | ~5750 nM | – | – | – | – | COC(=O)c1ccccc1Oc1nc(Nc2ccc(N3CCN(C)CC3)cc2OC)nc2ccn(C)c12 [IIN-1] | ~9960 nM | –
13 | 2220 nM | 2330 nM | ~2590 nM | – | – | – | – | COC(=O)c1ccccc1Oc1nc(Nc2ccc(N3CCC(N4CCN(C)CC4)CC3)cc2OC)nc2ccn(C)c12 [IIN-2] | 5630 nM | –
14 | > 10000 nM | > 10000 nM | > 10000 nM | – | – | – | – | COC(=O)c1ccccc1Oc1nc(Nc2ccc(N3CCC(O)CC3)cc2)nc2ccn(C)c12 [IIN-3] | > 10000 nM | –
15 | > 10000 nM | > 10000 nM | > 10000 nM | – | – | – | – | COC(=O)c1ccccc1Oc1nc(Nc2ccc(S(N)(=O)=O)cc2)nc2ccn(C)c12 [IIN-4] | > 10000 nM | –
16 | – | – | – | – | > 10000 nM | > 10000 nM | > 10000 nM | COc1cc(N2CCN(C)CC2)ccc1Nc1nc(NCc2ccccc2S(C)(=O)=O)c2[nH]ccc2n1 [IN-1] | – | > 10000 nM
17 | – | – | – | – | > 10000 nM | > 10000 nM | > 10000 nM | COc1cc(N2CCC(N3CCN(C)CC3)CC2)ccc1Nc1nc(NCc2ccccc2S(C)(=O)=O)c2[nH]ccc2n1 [IN-2] | – | > 10000 nM
18 | – | – | – | – | > 10000 nM | > 10000 nM | > 10000 nM | CS(=O)(=O)c1ccccc1CNc1nc(Nc2ccc(N3CCC(O)CC3)cc2)nc2cc[nH]c12 [IN-3] | – | > 10000 nM
19 | – | – | – | – | > 10000 nM | > 10000 nM | > 10000 nM | CS(=O)(=O)c1ccccc1CNc1nc(Nc2ccc(S(N)(=O)=O)cc2)nc2cc[nH]c12 [IN-4] | – | > 10000 nM
20 | – | – | – | – | 3400 nM | 4830 nM | 1720 nM | COc1cc(N2CCN(C)CC2)ccc1Nc1nc(NCc2ccccc2S(=O)(=O)C(C)C)c2[nH]ccc2n1 [IO-1] | – | 4080 nM
21 | – | – | – | – | > 10000 nM | > 10000 nM | > 10000 nM | CC(C)S(=O)(=O)c1ccccc1CNc1nc(Nc2ccc(N3CCC(O)CC3)cc2)nc2cc[nH]c12 [IO-3] | – | > 10000 nM
22 | – | – | – | – | > 10000 nM | > 10000 nM | > 10000 nM | CC(C)S(=O)(=O)c1ccccc1CNc1nc(Nc2ccc(S(N)(=O)=O)cc2)nc2cc[nH]c12 [IO-4] | – | > 10000 nM

Second part, the molecule before the results:

Row | Compound | IC50 (EML4-ALK (L1196M)-BaF3; [1]) | IC50 (NPM-ALK-BaF3; Table 12) | IC50 (EML4-ALK-BaF3; Table 12) | targeting selectivity (EML4-ALK-BaF3; ratio of IC50 between wild-type BaF3 and ALK transformed BaF3 cells) | IC50 (EML4-ALK (L1196M)-BaF3; [2]) | IC50 (NPM-ALK-BaF3; Table 11) | IC50 (EML4-ALK-BaF3; Table 11) | IC50 (wild type BaF3; Table 12) | IC50 (wild type BaF3; Table 11)
23 | CNC(=O)c1ccccc1Nc1nc(Nc2ccc(N3CCC(N4CCN(C)CC4)CC3)cc2OC)nc2cc[nH]c12 [IJ-1] | – | – | – | – | 3940 nM | 4660 nM | 4270 nM | – | 5010 nM
24 | CNC(=O)c1ccccc1Nc1nc(Nc2ccc(N3CCC(N4CCCC4)CC3)cc2OC)nc2cc[nH]c12 [IJ-2] | – | – | – | – | 4110 nM | ~8360 nM | ~8710 nM | – | ~11700 nM
25 | CNC(=O)c1ccccc1Nc1nc(Nc2ccc(S(N)(=O)=O)cc2)nc2cc[nH]c12 [IJ-3] | – | – | – | – | > 10000 nM | > 10000 nM | > 10000 nM | – | > 10000 nM
26 | COC(=O)c1sccc1Nc1nc(Nc2ccc(N3CCN(C)CC3)cc2OC)nc2cc[nH]c12 [IK-1] | – | – | – | – | 1550 nM | 1780 nM | ~2580 nM | – | 1820 nM
27 | COC(=O)c1sccc1Nc1nc(Nc2ccc(N3CCC(N4CCN(C)CC4)CC3)cc2OC)nc2cc[nH]c12 [IK-2] | – | – | – | – | 451 nM | ~823 nM | 669 nM | – | ~913 nM
28 | COc1cc(N2CCN(C)CC2)ccc1Nc1nc(NCc2ccccc2SC)c2[nH]ccc2n1 [IL-1] | – | – | – | – | 1620 nM | ~929 nM | 1320 nM | – | ~2820 nM
29 | COc1cc(N2CCC(N3CCN(C)CC3)CC2)ccc1Nc1nc(NCc2ccccc2SC)c2[nH]ccc2n1 [IL-2] | – | – | – | – | 2000 nM | ~7720 nM | ~2570 nM | – | ~7840 nM
30 | CSc1ccccc1CNc1nc(Nc2ccc(N3CCC(O)CC3)cc2)nc2cc[nH]c12 [IL-3] | – | – | – | – | 5020 nM | 5180 nM | 3500 nM | – | 5180 nM
31 | CSc1ccccc1CNc1nc(Nc2ccc(S(N)(=O)=O)cc2)nc2cc[nH]c12 [IL-4] | – | – | – | – | > 10000 nM | > 10000 nM | 9510 nM | – | > 10000 nM
32 | COc1cc(N2CCN(C)CC2)ccc1Nc1nc(NCc2ccccc2SC(C)C)c2[nH]ccc2n1 [IM-1] | – | – | – | – | 587 nM | 572 nM | ~300 nM | – | ~867 nM
33 | CC(C)Sc1ccccc1CNc1nc(Nc2ccc(N3CCC(O)CC3)cc2)nc2cc[nH]c12 [IM-2] | – | – | – | – | 1310 nM | 1620 nM | 1240 nM | – | 2900 nM
34 | CC(C)Sc1ccccc1CNc1nc(Nc2ccc(S(N)(=O)=O)cc2)nc2cc[nH]c12 [IM-3] | – | – | – | – | > 10000 nM | > 10000 nM | 7530 nM | – | > 10000 nM

— patent US10508118B2, “Pyrimidopyrrole compounds, method for preparing the same, pharmaceutical compositions comprising the same and uses thereof” (Xiamen University, priority 2015, dated 2019)
